Measurements as given in patent publication US10208071B2, “Use of agonists of formyl peptide receptor 2 for treating ocular inflammatory diseases” (Allergan, Inc., priority 2013, dated 2019).

How the values were obtained:
[1] = test system: corneal epithelial wound; test: Alkali burn corneal wound in rabbits; type: in vivo; details: FIG. 3; rabbit model, b270 says mouse models; topical three times a day
Text: Alkali burn in rabbits: Corneal epithelium plays an important role in the maintenance of corneal function and integrity. Prolonged corneal epithelial defects causes corneal opacity, neovascularization, bacterial infection and visual loss. Corneal epithelial healing is a complex process involving inflammatory response to injury, cell proliferation and migration. Animal models of corneal injury are every useful to test new anti-inflammatory and pro-wound healing therapies. New Zealand White rabbits weighing between 2.1 and 2.5 kg were anesthetized systemically with Ketamine/Xylazine (35/5 mg/kg) subcutaneously and topically with proparacaine (0.5%). The corneal epithelial wound in one eye was induced with a NaOH saturated filter paper containing 1.0 N NaOH for 30 seconds. The eyes were rinsed with sterile PBS. The corneal wound was confirmed by fluorescein staining with 10% sodium fluorescein (Science Lab Com) and slit lamp photography. Test compounds were formulated in the vehicle described above. For initial studies compounds were topically dosed three times a day. Quantification of corneal wound areas was done using Image J software where fluorescing stain green part was traced and converted to total pixel.

[2] = target: T1, FPR2 (Homo sapiens (Human), UniProt P25090); test: FLIPR Ca+2 response, HEK-Gα16 cells stably expressing the human FPR2 receptor (Table 4); type: cell-based; details: for FPR2 (efficacy): efficacy in parentheses
Method in brief: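 HEK-Gα16 cells stably expressing human FPR2, loaded with 2 μM Fluo-4 in HBSS/20 mM HEPES for 40 min at 37° C., then washed. Ligands added in HBSS/Hepes and Ca+2 responses recorded on FLIPR in relative fluorescence units.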

[3] = target: T1, FPR2; test: FPR2 Ga16-CHO EC50 (efficacy), Tables 1-3; type: cell-based; details: for FPR2 Ga16-CHO (efficacy): efficacy in parentheses

T1 sequence (P25090 whole entry): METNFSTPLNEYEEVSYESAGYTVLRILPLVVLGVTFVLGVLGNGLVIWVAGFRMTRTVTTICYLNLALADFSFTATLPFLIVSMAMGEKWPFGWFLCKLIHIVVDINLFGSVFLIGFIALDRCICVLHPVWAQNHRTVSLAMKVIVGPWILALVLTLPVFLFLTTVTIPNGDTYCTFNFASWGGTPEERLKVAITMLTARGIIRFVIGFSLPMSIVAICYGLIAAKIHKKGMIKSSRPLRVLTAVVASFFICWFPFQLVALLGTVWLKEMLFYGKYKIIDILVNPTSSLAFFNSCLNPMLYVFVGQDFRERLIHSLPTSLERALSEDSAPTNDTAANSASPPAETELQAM

| SMILES | FPR2 (efficacy) [2] | EC50 ([2]; unit inferred) [µM] | EC50 [3] [µM] | FPR2 Ga16-CHO (efficacy) [3] | healing and re-epithelialization of corneal wound [1] |
| --- | --- | --- | --- | --- | --- |
| CC[C@H](C)[C@H](NC(=O)Nc1ccc(Br)cc1)C(=O)NCC(=O)O [Compound 3, {[(2S,3S)-2-{[(4-bromophenyl)carbamoyl]amino}-3-methylpentanoyl]amino}acetic acid] | (1.0) | 0.00198 | – | – | accelerated healing and re-epithelialization |
| CCC1(c2ccccc2)NC(=O)N(CC(=O)Nc2ccc(Br)cc2)C1=O (stereo not shown) [N-(4-bromophenyl)-2-(4-ethyl-2,5-dioxo-4-phenylimidazolidin-1-yl)acetamide] | – | – | 0.523 | nM (0.83) | – |
| COc1ccc(NC(=O)N[C@@H](Cc2ccccc2)C(=O)O)cc1 [(2S)-2-({[(4-methoxyphenyl)amino]carbonyl}amino)-3-phenylpropanoic acid] | – | – | 1.75 | nM (0.90) | – |
| O=C(Nc1ccc(OC(F)(F)F)cc1)NC(Cc1ccccc1)C(=O)O (stereo not shown) [3-phenyl-2-[({[4-(trifluoromethoxy)phenyl]amino}carbonyl)amino]propanoic acid] | – | – | 1.57 | nM (0.79) | – |
| O=C(CN1C(=O)C2C3C=CC(C3)C2C1=O)Nc1ccc(Br)cc1 (stereo not shown) [N-(4-bromophenyl)-1,3,3a,4,7,7a-hexahydro-1,3-dioxo-4,7-methano-2H-isoindole-2-acetamide] | – | – | – | (0.90) | – |
| COc1ccc(NC(=O)NC(Cc2ccccc2)C(=O)O)cc1OC (stereo not shown) [2-({[(3,4-dimethoxyphenyl)amino]carbonyl}amino)-3-phenylpropanoic acid] | – | – | 2.79 | nM (0.72) | – |
| CCCC1(CCC)NC(=O)N(CC(=O)Nc2ccc(Br)cc2)C1=O [N-(4-bromophenyl)-2-(2,5-dioxo-4,4-dipropylimidazolidin-1-yl)acetamide] | – | – | 0.645 | nM (0.98) | – |
| CCC1(CC)NC(=O)N(CC(=O)Nc2ccc(F)cc2)C1=O [2-(4,4-diethyl-2,5-dioxoimidazolidin-1-yl)-N-(4-fluorophenyl)acetamide] | – | – | 2.77 | nM (0.67) | – |
| O=C(CN1C(=O)NC2(CCCCC2)C1=O)Nc1ccc(Br)cc1 [N-(4-bromophenyl)-2-(2,4-dioxo-1,3-diazaspiro[4.5]dec-3-yl)acetamide] | – | – | 0.738 | nM (0.89) | – |
| O=C(CN1C(=O)C2CC=CCC2C1=O)Nc1ccc(Br)cc1 (stereo not shown) [N-(4-bromophenyl)-1,3,3a,4,7,7a-hexahydro-1,3-dioxo-2H-isoindole-2-acetamide] | – | – | – | (0.98) | – |
| O=C(Nc1ccc([N+](=O)[O-])cc1)N[C@@H](Cc1ccccc1)C(=O)O [(2S)-2-({[(4-nitrophenyl)amino]carbonyl}amino)-3-phenylpropanoic acid] | – | – | – | nM (0.82) | – |
| O=C(CN1C(=O)NC2(CCCCCC2)C1=O)Nc1ccc(Br)cc1 [N-(4-bromophenyl)-2-(2,4-dioxo-1,3-diazaspiro[4.6]undec-3-yl)acetamide] | – | – | 0.679 | nM (0.96) | – |
| O=C(Nc1ccc(Br)cc1)N[C@H](Cc1ccccc1)C(=O)O [(2R)-2-({[(4-bromophenyl)amino]carbonyl}amino)-3-phenylpropanoic acid] | – | – | 1.82 | nM (0.99) | – |
| CC[C@H](C)[C@H](NC(=O)Nc1ccc(Br)cc1)C(=O)O [Compound 53, (2S,3S)-2-{[(4-bromophenyl)carbamoyl]amino}-3-methylpentanoic acid] | nM (0.9) | – | – | nM (0.89) | – |
| O=C(Nc1ccc(Cl)c(Cl)c1)N[C@@H](Cc1ccccc1)C(=O)O [(2S)-2-({[(3,4-dichlorophenyl)amino]carbonyl}amino)-3-phenylpropanoic acid] | – | – | – | μM (0.57) | – |

The remaining compounds from weak to strong by EC50 [3], led by results:

| FPR2 (efficacy) [2] | EC50 ([2]; unit inferred) [µM] | EC50 [3] [µM] | FPR2 Ga16-CHO (efficacy) [3] | SMILES | healing and re-epithelialization of corneal wound [1] |
| --- | --- | --- | --- | --- | --- |
| – | – | 0.363 | nM (0.91) | Cc1ccc(NC(=O)NN2C(=O)NC3(CCC(C)CC3)C2=O)cc1 (stereo not shown) [1-(8-methyl-2,4-dioxo-1,3-diazaspiro[4,5]decan-3-yl)-3-(p-tolypurea] | – |
| – | – | 0.322 | nM (0.96) | O=C(CN1C(=O)NC2(CCCC2)C1=O)Nc1ccc(Br)cc1 [N-(4-bromophenyl)-2-(2,4-dioxo-1,3-diazaspiro[4.4]non-3-yl)acetamide] | – |
| – | – | 0.314 | nM (0.79) | CCC1(CC)NC(=O)N(CC(=O)Nc2ccc(Cl)cc2)C1=O [N-(4-chlorophenyl)-2-(4,4-diethyl-2,5-dioxoimidazolidin-1-yl)acetamide] | – |
| – | – | 0.258 | nM (0.94) | CC1(CCc2ccccc2)NC(=O)N(NC(=O)Nc2ccccc2F)C1=O (stereo not shown) [1-(2-fluorophenyl)-3-[4-methyl-2,5-dioxo-4-(2-phenylethyl)imidazolidin-1-yl]urea] | – |
| – | – | 0.223 | nM (1.0) | CC1(CCc2ccccc2)NC(=O)N(NC(=O)Nc2ccccc2)C1=O (stereo not shown) [1-[4-methyl-2,5-dioxo-4-(2-phenylethyl)imidazolidin-1-yl]-3-phenylurea] | – |
| – | – | 0.166 | nM (0.84) | CC1(C2CC2)NC(=O)N(CC(=O)Nc2ccc(Br)cc2)C1=O (stereo not shown) [N-(4-bromophenyl)-2-(4-cyclopropyl-4-methyl-2,5-dioxoimidazolidin-1-yl)acetamide] | – |
| – | – | 0.157 | nM (0.96) | CCC1(C)NC(=O)N(NC(=O)Nc2ccc(Cl)cc2)C1=O (stereo not shown) [1-(4-chlorophenyl)-3-(4-ethyl-4-methyl-2,5-dioxoimidazolidin-1-yl)urea] | – |
| – | – | 0.152 | nM (0.91) | CC(C)[C@H](NC(=O)Nc1ccc(Br)cc1F)C(=O)O [(2S)-2-({[(4-bromo-2-fluorophenyl)amino]carbonyl}amino)-3-methylbutanoic acid] | – |
| – | – | 0.12 | nM (0.97) | O=C(Nc1ccc(C(F)(F)F)cc1)N[C@@H](Cc1ccccc1)C(=O)O [(2S)-3-phenyl-2-[({[4-(trifluoromethyl)phenyl]amino}carbonyl)amino]propanoic acid] | – |
| – | – | 0.11 | nM (1.0) | O=C(Nc1ccc(Cl)cc1)NC(Cc1ccccc1)C(=O)O (stereo not shown) [2-({[(4-chlorophenyl)amino]carbonyl}amino)-3-phenylpropanoic acid] | – |
| – | – | 0.067 | nM (0.89) | O=C(Nc1ccc(Br)cc1)NC(Cc1c[nH]c2ccccc12)C(=O)O (stereo not shown) [2-({[(4-bromophenyl)amino]carbonyl}amino)-3-(1H-indol-3-yl)propanoic acid] | – |
| – | – | 0.049 | nM (0.98) | O=C(Nc1ccc(Cl)cc1)NN1C(=O)NC2(CCCCC2)C1=O [1-(4-chlorophenyl)-3-(2,4-dioxo-1,3-diazaspiro[4,5]decan-3-yl) urea] | – |
| – | – | 0.031 | nM (1.0) | O=C(Nc1ccc(Br)cc1)N[C@@H](Cc1ccccc1)C(=O)O [(2S)-2-({[(4-bromophenyl)amino]carbonyl}amino)-3-phenylpropanoic acid] | – |
| – | – | 0.0258 | nM (0.94) | O=C(Nc1ccc(Br)cc1)N[C@H](C(=O)O)c1ccccc1 [(2S)-({[(4-bromophenyl)amino]carbonyl}amino) (phenyl)acetic acid] | – |
